Like-named read-outs stand apart in the source and are kept apart here.
What was measured:
Type in all cases: cell-based
KV10.1 = target: T1, KV10.1 (Homo sapiens, UniProt O95259); assay: Whole-cell patch clamp on HEK-293 cells stably expressing KV10.1
T1 construct: expressed in transfected cells
T1 sequence (O95259 1-962 isoform O95259-2): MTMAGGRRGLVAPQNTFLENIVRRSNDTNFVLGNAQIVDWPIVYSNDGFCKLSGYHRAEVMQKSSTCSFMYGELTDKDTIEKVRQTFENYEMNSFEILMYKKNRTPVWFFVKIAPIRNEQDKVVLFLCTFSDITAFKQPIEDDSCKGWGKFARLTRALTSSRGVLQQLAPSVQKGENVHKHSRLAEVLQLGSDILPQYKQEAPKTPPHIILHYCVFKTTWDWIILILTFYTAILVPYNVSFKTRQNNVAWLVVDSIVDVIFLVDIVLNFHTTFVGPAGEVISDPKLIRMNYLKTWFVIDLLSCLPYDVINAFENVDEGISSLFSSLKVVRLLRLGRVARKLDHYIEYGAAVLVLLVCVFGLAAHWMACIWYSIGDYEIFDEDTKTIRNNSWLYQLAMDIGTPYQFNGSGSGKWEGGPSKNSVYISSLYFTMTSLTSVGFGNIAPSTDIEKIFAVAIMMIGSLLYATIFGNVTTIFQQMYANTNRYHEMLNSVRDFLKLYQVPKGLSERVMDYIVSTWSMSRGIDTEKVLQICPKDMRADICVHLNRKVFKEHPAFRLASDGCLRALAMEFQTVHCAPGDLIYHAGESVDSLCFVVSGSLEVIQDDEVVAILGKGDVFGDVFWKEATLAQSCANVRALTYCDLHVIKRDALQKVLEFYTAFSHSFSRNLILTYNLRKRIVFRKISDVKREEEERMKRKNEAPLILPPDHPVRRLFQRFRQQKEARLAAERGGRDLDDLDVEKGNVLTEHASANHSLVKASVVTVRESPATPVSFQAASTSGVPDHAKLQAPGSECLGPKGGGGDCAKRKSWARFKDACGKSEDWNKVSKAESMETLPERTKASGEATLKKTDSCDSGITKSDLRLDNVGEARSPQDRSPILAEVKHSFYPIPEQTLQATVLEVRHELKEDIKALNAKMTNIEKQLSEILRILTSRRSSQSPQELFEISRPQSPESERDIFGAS
Procedure: (§1) Whole-cell patch clamp experiments were performed on stably transfected HEK-293 cells. The cells were grown on fibronectin-coated glass coverslips in DMEM supplemented with 10% FCS and 300 µg/mL Zeocin. Experiments were performed at room temperature under continuous perfusion. The extracellular solution contained (mM) 160 NaCl, 2.5 KCl, 2 CaCl2, 1 MgCl2, 10 Hepes/NaOH, pH 7.4, 8 glucose. For the experiments determining conductance–voltage relationships, tail currents were made visible by substituting 60 mM NaCl by KCl ([…], 100 NaCl). Pipettes were pulled from #1 glass capillaries (WPI) to resistances of 1–3 MΩ when loaded with the intracellular solution (100 KCl, 45 N-methyl-D-glucamine, 10 1,2-bis(o-aminophenoxy)ethane-N,N,N′,N′-tetraacetic acid (BAPTA), 10 Hepes pH 7.35). Data acquisition was performed using a EPC10 Plus amplifier (HEKA Elektronik) and Patch Master software. Drug application was performed using an 8-channel fast solution exchanger (ALA). All compounds were dissolved in DMSO to a final concentration of 10 mM. 0.5% DMSO in extracellular solution served as control. KV10.1 currents were elicited by 500 ms depolarisations to +40 mV under continuous perfusion with the compound-containing or control solution. hERG current amplitudes were measured as the peak tail current during a 4 s repolarization to −40 mV after a depolarising pulse to +20 mV lasting for 2 s.
The nine selected in silico hits were tested by manual patch-clamp on a HEK293 cell line stably expressing KV10.1 [33] at a compound concentration of 50 μM (Table 1). Compound activity was tested by determining the current amplitude elicited by repetitive stimuli to +40 mV from a holding potential of −80 mV. […] The hit compound ZVS-08 represents a new structural class of KV10.1 inhibitors with diarylamine structure and has a unique structure among the acquired virtual screening hits. […] The most notable change from the purpurealidin analogues is the replacement of the hydrogen bond acceptor group of the amide bond with the oxygen atom of the nitro group of ZVS-08.

Colo357 tumour spheroids = assay: Apoptosis (caspase 3/7 reporter) in tumour spheroids; details: 50 µM, caspase reporter fluorescence over 72 h, 8.9 µM cycloheximide as sensitizer
Procedure: Spheroids were cultured in round bottom ultra-low attachment 96-well plates (Corning) at a density of 5000 cells/well in 2% Matrigel (Corning) and centrifuged at 1000× g for 10 min. Spheroid formation was monitored continuously in the Incucyte system and treatments were added once spheroids were formed. As apoptosis sensitizer, 8.9 µM cycloheximide was added to controls and treated spheroids. Caspase 3/7 green reagent (Sartorius; 1:1000) was used as recommended by the manufacturer. Caspase 3/7 reagent substrate crosses the cell membrane and its cleavage by activated caspase-3/7 results in the release of a DNA dye and fluorescent staining of nuclear DNA.
To test the ability of the compounds to inhibit tumour progression in a more predictive system, we performed experiments on tumour spheroids of the pancreatic cancer cell line Colo357, which grows efficiently in this culture modality. The cells were seeded in the presence of Matrigel (see methods), allowed to form spheroids, and the compounds (50 µM) were added to the growth medium. The control contained the same amount of the vehicle (0.5% DMSO). Apoptosis was monitored by addition of a fluorescent […] activity reporter at the same time as the compounds. Cleavage of the reporter by caspase results in green florescence, and the intensity of the fluorescence was recorded over 72 h.

hERG = target: T2, hERG (Homo sapiens, UniProt Q12809); assay: Whole-cell patch clamp on stably transfected HEK-293 cells, hERG tail current; details: peak tail current at −40 mV after +20 mV
T2 construct: expressed in transfected cells
Procedure: as §1

[1] = HEK-293, 500 ms depolarisation to +40 mV, read-out: IC50 Kv10.1

T2 sequence (Q12809 whole entry): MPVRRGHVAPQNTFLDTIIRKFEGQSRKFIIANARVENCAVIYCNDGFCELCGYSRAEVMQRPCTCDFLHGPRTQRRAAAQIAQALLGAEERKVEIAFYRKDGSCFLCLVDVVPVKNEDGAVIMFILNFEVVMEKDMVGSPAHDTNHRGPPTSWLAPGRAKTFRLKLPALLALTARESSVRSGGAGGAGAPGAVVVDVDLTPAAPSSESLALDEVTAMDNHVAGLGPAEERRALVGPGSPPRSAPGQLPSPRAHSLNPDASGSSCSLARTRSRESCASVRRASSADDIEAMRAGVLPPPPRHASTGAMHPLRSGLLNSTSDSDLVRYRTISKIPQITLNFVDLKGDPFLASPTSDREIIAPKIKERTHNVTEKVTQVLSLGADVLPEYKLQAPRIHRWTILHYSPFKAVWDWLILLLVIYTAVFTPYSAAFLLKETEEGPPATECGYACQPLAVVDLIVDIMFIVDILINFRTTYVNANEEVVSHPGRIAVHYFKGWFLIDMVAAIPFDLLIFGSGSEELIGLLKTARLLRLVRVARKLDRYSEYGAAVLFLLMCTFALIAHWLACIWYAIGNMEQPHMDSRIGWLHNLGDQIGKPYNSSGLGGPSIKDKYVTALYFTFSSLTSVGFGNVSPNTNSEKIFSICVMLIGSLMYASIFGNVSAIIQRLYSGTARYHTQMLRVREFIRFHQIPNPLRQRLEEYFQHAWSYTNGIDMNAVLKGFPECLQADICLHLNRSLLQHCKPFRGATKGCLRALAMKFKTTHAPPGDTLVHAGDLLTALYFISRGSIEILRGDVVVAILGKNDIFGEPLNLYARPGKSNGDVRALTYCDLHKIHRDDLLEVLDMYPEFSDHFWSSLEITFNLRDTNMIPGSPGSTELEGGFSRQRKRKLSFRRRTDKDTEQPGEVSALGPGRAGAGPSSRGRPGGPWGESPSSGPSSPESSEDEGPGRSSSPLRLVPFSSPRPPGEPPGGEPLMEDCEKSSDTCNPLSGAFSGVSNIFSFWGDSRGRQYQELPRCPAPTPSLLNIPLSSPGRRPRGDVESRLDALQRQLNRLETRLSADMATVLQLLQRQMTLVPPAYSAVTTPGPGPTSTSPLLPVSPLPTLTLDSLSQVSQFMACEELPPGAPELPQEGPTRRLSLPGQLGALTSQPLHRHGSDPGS

| Compound | IC50 (KV10.1; [1]) | apoptosis induction in tumour spheroids (Colo357 tumour spheroids) | IC50 (hERG) | inhibition at 50 µM (KV10.1; HEK293, compound concentration 50 μM, stimuli to +40 mV, mean ± standard error, read-out: Effect on Kv10.1 (% Inhibition)) | semi-maximal activation (conductance–voltage relationship) (KV10.1; in the presence of 5 µM ZVS-08, 4.39 ± 1.9 mV in the absence) | IC50 (KV10.1; same IC50 in presence and absence of 500 nM astemizole, end of 500 ms pulse to +40 mV, read-out: IC50 Kv10.1, competition with astemizole) | IC50 (KV10.1; same IC50 in presence and absence of 1 µM mibefradil, end of 500 ms pulse to +40 mV, read-out: IC50 Kv10.1, competition with mibefradil) |
| --- | --- | --- | --- | --- | --- | --- | --- |
| O=[N+]([O-])c1cc(C(F)(F)F)ccc1Nc1ccc(OCC(O)CN2CCOCC2)cc1 (stereo not shown) [Compound 8] | 1.01 µM | apoptosis statistically significant over the control starting only after 24 h | 0.156 µM |  |  |  |  |
| CN(C)CC(O)COc1ccc(Nc2ccc(C(F)(F)F)cc2[N+](=O)[O-])cc1 (stereo not shown) [ZVS-08] | 3.7 µM | induced apoptosis efficiently starting very early | 0.194 µM | 80.27 ± 0.63% | −29.88 ± 1.8 mV | 1.69 µM | 1.47 µM |
